Residues, ends and D or L forms follow the SMILES beside them.
Experiments:
[1] = tested on: human normal lung epithelial cell BEAS-2B; experiment: Growth effects on human normal lung epithelial cell BEAS-2B (FIG. 4); type: cell-based
[2] = tested on: bleomycin-induced pulmonary fibrosis; experiment: Prevention and treatment of pulmonary fibrosis IPF experiment (bleomycin-induced, mice); type: in vivo, C57 mice
Procedure: (1) Animals: SPF grade C57 mice, 22 g±2 g, 60 mice, females. The mice was divided into the following groups using the random digits table: the control group, the model group, the pirfenidone group (50 mg/kg), the EZY-1 polypeptide low dose group (0.25 mg/kg), the EZY-1 polypeptide medium dose group (0.5 mg/kg), the EZY-1 polypeptide high dose group (1.0 mg/kg), 10 animals per group. (3) After the mice were anesthetized by intraperitoneal injection of 1% sodium pentobarbital at a dose of 50 mg/kg, they are fixed to the operation console on their back. Their tongues were pulled out with tweezers to expose the trachea, and 5 mg/kg Bleomycin was slowly injected under a cold light source magnifying glass. Immediately after the injection, the operation console was erected and rotated for 3 minutes to evenly distribute the drug solution in the lungs. The control group was injected with an equal volume of isotonic saline in the same way as the previous method. After 10 days, the mice were intra-gastrically administered with 0.1 ml/10 g with drugs. The control group and the model group were intra-gastrically administered with an equal volume of isotonic saline. The other groups were intra-gastrically administered with the corresponding dose of the drug for 35 days, once a day. After 35 days of drug administration, the mice were anesthetized and sacrificed, and the two intact lung tissues were isolated and weighed. The same part of the right upper lobe was taken, fixed with 4% paraformaldehyde for 48 hours, and paraffin sections were generated for Hematoxylin-Eosin (HE) staining for histopathological observations. The same part of the […] was taken for the measurement of HYP content in the lung tissue. Plasma was collected for the measurement of T-SOD, MDA, and GSH-PX levels. Statistical analysis was performed using SPSS 17.0 software. Measurement data were expressed as mean±standard deviation (x±s). Comparison of the means in multiple samples was performed by one-way ANOVA. Comparison between groups was performed by t test, with P≤0.05 indicating statistically significant differences.

[3] = 50 mg/kg intragastric once a day for 35 days, bleomycin mice, mean ± SD

Question: With CC[C@H](C)[C@H](NC(=O)CNC(=O)[C@H](CC(N)=O)NC(=O)[C@H](Cc1ccc(O)cc1)NC(=O)[C@@H](NC(=O)[C@@H](NC(=O)[C@H](CS)NC(=O)[C@H](Cc1ccccc1)NC(=O)[C@H](CS)NC(=O)[C@H](C)NC(=O)CNC(=O)[C@@H](NC(=O)[C@@H](N)CCCNC(=N)N)[C@@H](C)O)C(C)C)[C@@H](C)CC)C(=O)N[C@@H](CC(C)C)C(=O)N[C@@H](Cc1ccc(O)cc1)C(=O)N1CCC[C@H]1C(=O)O [EZY-1 polypeptide, RTGACFCVIYNGILYP] (H-RTGACFCVIYNGILYP-OH) as the molecule, how does the “toxicity to normal cells (growth of BEAS-2B)” value [1] read?
Answer: low toxicity to normal cells

Question: With Cc1ccc(=O)n(-c2ccccc2)c1 [pirfenidone] as the molecule, how does the “GSH-PX (plasma)” value [2, 3] read?
Answer: 672.92 ± 98.72 active unit

Question: And the “HYP (lung tissue)” value [2, 3]?
Answer: 48.36 ± 5.01 μg/g lung tissues Wet weight

Question: What about the “MDA (plasma)” value [2, 3] of the same molecule?
Answer: 6.52 ± 0.71 nmal/mL

Question: What about the “T-SOD (plasma)” value [2, 3] of the same molecule?
Answer: 156.05 ± 17.32 U/mL

Question: What about the “pathological changes of lung tissue (HE staining, FIG. 5)” value ([2]; EZY-1 low, medium and high dose (0.25, 0.5, 1.0 mg/kg), pirfenidone 50 mg/kg, 35 days) of the same molecule?
Answer: reduce alveolar structural damage, reduce collagen fiber production, and inhibit the inflammatory cell infiltration

From patent US11225504B2, “Functional polypeptide and its application thereof in preparing medicament for preventing and treating pulmonary fibrosis” (Guangdong Medical University, priority 2017, dated 2022)
